Measured values taken from patent US20100190824A1, “Novel Substituted Piperidones as HSP Inducers” (priority 2007, published 2010).

Columns and labels:
HSP70b mRNA [1] = test: Cellular expression of HSP-70 mRNA in Hela cells (real-time PCR); assay type: cell-based; settings: fold induction of HSP-70b mRNA relative to the vehicle treated control; 4 hours; normalized to 18S rRNA
Protocol: (§1) Experiments set forth in this section were conducted to determine whether the compounds of the present invention are able to elevate the expression of HSP-70 gene in cells.
(§2) Hela cell-line or primary mixed neurons derived from neonatal rat cerebellum were employed. Induction was carried out for the indicated dose(s) for 4 hours duration and total RNA was isolated. Expression of HSP70b mRNA along-with expression of 18S rRNA was monitored by real-time PCR. HSP70b mRNA expression was normalized relative to the expression of 18S rRNA.
(§3) The results for test compounds were expressed as fold induction of HSP-70 mRNA relative to vehicle treated control and are as shown in Table 2 & 3.

TNF-α mRNA = test: Inhibition of LPS-induced TNF-α expression in PMA differentiated THP-1 cells; assay type: cell-based, Human; settings: LPS (1 ug/ml) and compound for 4 hours, LPS alone as 100%
Protocol: The purpose of the present study was to determine the inhibition of lipopolysaccharide(LPS)-induced TNF-α expression in phorbol merstyl ester (PMA) differentiated THP-1 cells.
Human monocytic leukaemia cell line (THP-1), differentiated into macrophage-like cells by PMA treatment was employed. Differentiated cells were treated with either LPS (1 ug/ml) alone or with LPS (1 ug/ml) and compound for 4 hours. Total RNA was isolated and expression of TNF-αmRNA along-with expression of 18S rRNA was monitored by real-time PCR. TNF-α mRNA expression was normalized relative to the expression of 18S rRNA Considering TNF-α expression for cells treated with LPS alone as 100%; the results for test compounds were expressed as % inhibition of TNF-α expression and are as shown in Table 4

HSP70b mRNA [2] = test: Cellular expression of HSP-70 mRNA in primary mixed neurons (real-time PCR); assay type: cell-based; settings: fold induction of HSP70b mRNA relative to vehicle treated control; primary mixed neurons from neonatal rat cerebellum; 4 hours; normalized to 18S rRNA
Protocol: as §1, §2, §3

| SMILES | HSP Induction in Hela cells (HSP70b mRNA [1]) | TNF-alpha Inhibition (TNF-α mRNA) | HSP Induction in mixed neuron (HSP70b mRNA [2]) |
| --- | --- | --- | --- |
| CCOC(=O)N1CC(=Cc2ccccn2)C(=O)C(C)(C)C1Cc1ccc(OC)cc1 (stereo not shown) [Compound 13, 2-(4-Methoxy-benzyl)-3,3-dimethyl-4-oxo-5-[1-pyridin-2-yl-methylidene]-piperidine-1-carboxylic acid ethyl ester] | (+++) (193-1536 fold) | – | – |
| COc1ccc(CC2N(C(=O)Oc3ccccc3)CC(=Cc3ccccn3)C(=O)C2(C)C)cc1 (stereo not shown) [Compound 14, 2-(4-Methoxy-benzyl)-3,3-dimethyl-4-oxo-5-[1-pyridin-2-yl-methylidene]-piperidine-1-carboxylic acid phenyl ester] | (+++) (193-1536 fold) | – | – |
| COc1ccc(CC2N(C(=O)OCC(C)C)CC(=Cc3ccccn3)C(=O)C2(C)C)cc1 (stereo not shown) [Compound 15, 2-(4-Methoxy-benzyl)-3,3-dimethyl-4-oxo-5-[1-pyridin-2-yl-methylidene]-piperidine-1-carboxylic acid isobutyl ester] | (++++) (>1536 fold) | – | – |
| COc1ccc(CC2N(C(=O)C(C)(C)C)CC(=Cc3ccccn3)C(=O)C2(C)C)cc1 (stereo not shown) [Compound 16, 1-(2,2-Dimethyl-propionyl)-2-(4-methoxy-benzyl)-3,3-dimethyl-5-[1-pyridin-2-yl-methylidene]-piperidin-4-one] | (++++) (>1536 fold) | (++++) (>80%) | – |
| COc1ccc(CC2N(C(=O)Nc3c(C)cccc3C)CC(=Cc3ccccn3)C(=O)C2(C)C)cc1 (stereo not shown) [Compound 17, 2-(4-Methoxy-benzyl)-3,3-dimethyl-4-oxo-5-[1-pyridin-2-yl-methylidene]-piperidine-1-carboxylic acid (2,6-dimethyl-phenyl)-amde] | (++) (25-192 fold) | – | – |
| CC1(C)CN(Cc2ccccc2)CC(=Cc2cccc(N3CCOCC3)n2)C1=O [Compound 20, 1-Benzyl-3,3-dimethyl-5-[1-(6-morpholin-4-yl-pyridin-2-yl)-methylidene]-piperidin-4-one] | (+++) (193-1536 fold) | (++) (41-60%) | – |
| CC1(C)CN(Cc2ccccc2)CC(=Cc2cccc(N3CCCCC3)n2)C1=O [Compound 23, 1-Benzyl-3,3-dimethyl-5-[1-(3,4,5,6-tetrahydro-2H-[1,2′]bipyridinyl-6′-yl)-methylidene]-piperidin-4-one] | (+++) (193-1536 fold) | – | – |
| CC1(C)CN(Cc2ccccc2)C(c2ccccc2)C(=Cc2ccccn2)C1=O (stereo not shown) [Compound 25, 1-Benzyl-5,5-dimethyl-2-phenyl-3-[1-pyridin-2-yl-methylidene]-piperidin-4-one] | (++++) (>1536 fold) | – | – |
| CC1(C)CN(Cc2ccccc2)C(c2ccccn2)C(=Cc2cccc(N3CCOCC3)n2)C1=O (stereo not shown) [Compound 28, 1-Benzyl-5,5-dimethyl-3-[1-(6-morpholin-4-yl-pyridin-2-yl)-methylidene]-2,3,5,6-tetrahydro-1H-[2,2′]bipyridinyl-4-one] | (++++) (>1536 fold) | – | – |
| CC1(C)CN(Cc2ccccc2)C(c2ccccn2)C(=Cc2ccccn2)C1=O (stereo not shown) [Compound 29, 1-Benzyl-5,5-dimethyl-3-[1-pyridin-2-yl-methylidene]-2,3,5,6-tetrahydro-1H-[2,2′]bipyridinyl-4-one] | (+++) (193-1536 fold) | – | – |
| CSc1ccc(C=C2C(=O)C(C)(C)CN(Cc3ccccc3)C2c2ccccc2)cc1 (stereo not shown) [Compound 30, 1-Benzyl-5,5-dimethyl-3-[1-(4-methylsulfanyl-phenyl)-methylidene]-2-phenyl-piperidin-4-one] | (+) (4-24 fold) | – | – |
| CC1(C)CN(Cc2ccccc2)C(c2ccccc2)C(=Cc2cccc(N3CCOCC3)n2)C1=O (stereo not shown) [Compound 31, 1-Benzyl-5,5-dimethyl-3-[1-(6-morpholin-4-yl-pyridin-2-yl)-methylidene]-2-phenyl-piperidin-4-one] | (++) (25-192 fold) | – | – |
| CC1(C)CN(Cc2ccccc2)C(c2cccs2)C(=Cc2cccc(N3CCOCC3)n2)C1=O (stereo not shown) [Compound 33, 1-Benzyl-5,5-dimethyl-3-[1-(6-morpholin-4-yl-pyridin-2-yl)-methylidene]-2-thiophen-2-yl-piperidin-4-one] | (+++) (193-1536 fold) | – | – |
| CC1(C)CN(Cc2ccccc2)C(c2ccccn2)C(=Cc2cccc(N3CCCCC3)n2)C1=O (stereo not shown) [Compound 34, 1-Benzyl-5,5-dimethyl-3-[1-(3,4,5,6-tetrahydro-2H-[1,2′]bipyridinyl-6′-yl)-methylidene]-2,3,5,6-tetrahydro-1H-[2,2′]bipyridinyl-4-one] | (++) (25-192 fold) | – | – |
| CC1(C)CN(C(=O)Oc2ccccc2)CC(=Cc2cccc(N3CCCCC3)n2)C1=O [Compound 35, 3,3-Dimethyl-4-oxo-5-[1-(3,4,5,6-tetrahydro-2H-[1,2′]bipyridinyl-6′-yl)-methylidene]-piperidine-1-carboxylic acid phenyl ester] | (++++) (>1536 fold) | – | – |
| CC1(C)CN(C(=O)Oc2ccccc2)CC(=Cc2cccc(N3CCOCC3)n2)C1=O [Compound 36, 3,3-Dimethyl-5-[1-(6-morpholin-4-yl-pyridin-2-yl)-methylidene]-4-oxo-piperidine-1-carboxylic acid phenyl ester] | (++++) (>1536 fold) | – | – |
| CC1(C)CN(Cc2ccccc2)CC(=Cc2nc3ccccc3c(=O)[nH]2)C1=O [Compound 37, 2-[1-Benzyl-5,5-dimethyl-4-oxo-piperidin-3-ylidenemethyl]-3H-quinazolin-4-one] | (++++) (>1536 fold) | – | – |
| CC1(C)CN(CCc2cccs2)CC(=Cc2ccccn2)C1=O [Compound 79, 3,3-Dimethyl-5-[1-pyridin-2-yl-methylidene]-1-(2-thiophen-2-yl-ethyl)-piperidin-4-one] | – | (++++) (>80%) | (+++) (9-16 fold) |
| CC1(C)CN(Cc2ccco2)C(c2ccccc2)C(=Cc2ccccn2)C1=O (stereo not shown) [Compound 82, 1-Furan-2-ylmethyl-5,5-dimethyl-2-phenyl-3-[1-pyridin-2-yl-methylidene]-piperidin-4-one] | – | (++++) (>80%) | (+++) (9-16 fold) |
| CN1CC(C)(C)C(=O)C(=Cc2ccccn2)C1c1ccccc1 (stereo not shown) [Compound 85, 1,5,5-Trimethyl-2-phenyl-3-[1-pyridin-2-yl-methylidene]-piperidin-4-one] | – | (+) (21-40%) | (++) (5-8 fold) |
| COc1cc(C2C(=Cc3ccccn3)C(=O)C(C)(C)CN2Cc2ccco2)cc(OC)c1OC (stereo not shown) [Compound 90, 1-Furan-2-ylmethyl-5,5-dimethyl-3-[1-pyridin-2-yl-methylidene]-2-(3,4,5-trimethoxy-phenyl)-piperidin-4-one] | – | (++) (41-60%) | (+) (2-4 fold) |
| O=C1C(=Cc2cccc(N3CCOCC3)n2)C(=O)N(Cc2ccccc2)CC1c1ccccc1 (stereo not shown) [Compound 103, 1-Benzyl-3-[1-(6-morpholin-4-yl-pyridin-2-yl)-methylidene]-5-phenyl-piperidine-2,4-dione] | – | (+) (21-40%) | (+) (2-4 fold) |
| CC1(C)C(=O)C(=Cc2ccccn2)CN(C(=S)Nc2ccccc2)C1c1ccc(S(C)(=O)=O)cc1 (stereo not shown) [Compound 105, 2-(4-Methanesulfonyl-phenyl)-3,3-dimethyl-4-oxo-5-[1-pyridin-2-yl-methylidene]-piperidine-1-carbothioic acid phenylamide] | – | (++) (41-60%) | (++) (5-8 fold) |
| CC1(C)CN(Cc2ccccc2)C(c2ccc(S(C)(=O)=O)cc2)C(=Cc2cccc(N3CCOCC3)n2)C1=O (stereo not shown) [Compound 227, 1-Benzyl-2-(4-methanesulfonyl-phenyl)-5,5-dimethyl-3-[1-(6-morpholin-4-yl-pyridin-2-yl)-methylidene]-piperidin-4-one] | – | (++++) (>80%) | (++++) (>16 fold) |
| CC1(C)CN(Cc2ccccc2)C(c2ccc(S(C)(=O)=O)cc2)C(=Cc2ccccn2)C1=O (stereo not shown) [Compound 229, 1-Benzyl-2-(4-methanesulfonyl-phenyl)-5,5-dimethyl-3-[1-pyridin-2-yl-methylidene]-piperidin-4-one] | – | (++++) (>80%) | (++) (5-8 fold) |
| COc1ccc(OC)c(C2C(=Cc3cccc(N4CCN(C)CC4)n3)C(=O)C(C)(C)CN2Cc2ccc(C)cc2)c1 (stereo not shown) [Compound 234, 2-(2,5-Dimethoxy-phenyl)-5,5-dimethyl-1-(4-methyl-benzyl)-3-[1-[6-(4-methyl-piperazin-1-yl)-pyridin-2-yl]-methylidene]-piperidin-4-one] | – | (+++) (61-80%) | (+++) (9-16 fold) |
